Experimental data as given in ChEMBL document CHEMBL3352417, “Confronting the challenges of discovery of novel antibacterial agents” (Bioorg Med Chem Lett, 2014).
Values after ≈ are worked out from the molar mass of the structure shown. One block for each molecule: values may come before it.

How the values were obtained:
[1] = Inhibition of Enterococcus faecalis DNA gyrase subunit B
[2] = Inhibition of Enterococcus faecalis ParE
[3] = target: Voltage-gated inwardly rectifying potassium channel KCNH2 (Homo sapiens, UniProt Q12809); assay: Inhibition of human ERG
[4] = tested on: Streptococcus pneumoniae; assay: Antimicrobial activity against Streptococcus pneumoniae; assay type: functional
[5] = tested on: Staphylococcus aureus; assay: Antimicrobial activity against Staphylococcus aureus; assay type: functional
[6] = Inhibition of beta-lactamase (unknown origin)

Chain of Voltage-gated inwardly rectifying potassium channel KCNH2 (Q12809 whole entry): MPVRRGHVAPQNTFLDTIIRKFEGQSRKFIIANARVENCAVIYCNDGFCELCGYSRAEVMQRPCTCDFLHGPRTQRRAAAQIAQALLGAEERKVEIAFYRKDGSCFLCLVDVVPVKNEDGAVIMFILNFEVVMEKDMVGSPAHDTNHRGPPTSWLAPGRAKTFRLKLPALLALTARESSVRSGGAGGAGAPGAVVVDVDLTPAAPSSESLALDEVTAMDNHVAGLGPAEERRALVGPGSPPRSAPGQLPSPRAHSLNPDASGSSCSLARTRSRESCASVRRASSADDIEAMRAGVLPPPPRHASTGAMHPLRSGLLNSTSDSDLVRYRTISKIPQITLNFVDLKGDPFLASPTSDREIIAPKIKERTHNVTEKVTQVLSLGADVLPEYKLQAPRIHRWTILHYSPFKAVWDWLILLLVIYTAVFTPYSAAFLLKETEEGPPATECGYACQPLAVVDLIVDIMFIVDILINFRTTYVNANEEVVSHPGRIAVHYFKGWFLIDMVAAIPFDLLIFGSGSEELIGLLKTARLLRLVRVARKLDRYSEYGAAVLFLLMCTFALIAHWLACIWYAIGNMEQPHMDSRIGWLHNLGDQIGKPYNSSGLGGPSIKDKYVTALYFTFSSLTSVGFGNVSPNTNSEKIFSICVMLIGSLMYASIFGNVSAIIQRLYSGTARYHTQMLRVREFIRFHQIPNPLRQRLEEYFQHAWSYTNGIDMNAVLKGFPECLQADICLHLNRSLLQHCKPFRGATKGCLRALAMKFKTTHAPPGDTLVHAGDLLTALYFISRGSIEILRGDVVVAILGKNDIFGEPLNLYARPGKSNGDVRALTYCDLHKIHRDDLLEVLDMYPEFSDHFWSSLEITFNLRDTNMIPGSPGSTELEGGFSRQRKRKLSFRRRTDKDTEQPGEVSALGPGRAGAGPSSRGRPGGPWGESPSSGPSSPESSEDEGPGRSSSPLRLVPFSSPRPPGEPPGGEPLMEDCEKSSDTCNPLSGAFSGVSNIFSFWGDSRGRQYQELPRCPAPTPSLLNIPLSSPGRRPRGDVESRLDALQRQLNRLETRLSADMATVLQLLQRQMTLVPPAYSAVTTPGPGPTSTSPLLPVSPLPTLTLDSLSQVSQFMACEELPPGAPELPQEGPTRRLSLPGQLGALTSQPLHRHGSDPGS

- IC50 [1]: < 0.0003 µM
- IC50 [2]: < 0.0003 µM
SMILES: CNc1cc(F)cc2c1[nH]c1nc(Oc3cnc(C)nc3)nc(N3CC4[C@H](N)C[C@]4(C)C3)c12 (stereo partly specified)

SMILES: O=c1ccc2ncc(=O)n3c2n1C[C@H]3CN1CCC(NCc2cc3c(cn2)OCCC3)CC1 [GEPOTIDACIN]
- IC50 [3]: 1400 µM
- MIC90 [4]: 0.25 µg/mL (≈ 0.557 µM)
- MIC90 [5]: 0.5 µg/mL (≈ 1.11 µM)

- IC50 [6]: 0.009 µM
SMILES: O=C(O)C[C@@H]1CC[C@H](NC(=O)Cc2cccs2)B(O)O1 [VABORBACTAM]
